In brackets after ≈: the same amount, converted by molar mass.
Key:
Assay type in all cases: cell-based
CANDIDA ALBICANS CCH 442 = test: In vitro antibacterial activity, MIC, BHI agar dilution; details: C. albicans CCH 442, unit assumed
[1] = system: STAPHYLOCOCCUS AUREUS CMX 642A; test: as above; details: S. aureus CMX 642A, unit assumed
[2] = system: KLEBSIELLA PNEUMONIAE ATCC 8045; test: as above; details: K. pneumoniae ATCC 8045, unit assumed
PSEUDOMONAS CEPACIA 296I = test: as above; details: P. cepacia 296I, unit assumed
[3] = system: ENTEROBACTER AEROGENES ATCC 13048; test: as above; details: E. aerogenes ATCC 13048, unit assumed
[4] = system: STAPHYLOCOCCUS AUREUS 1775; test: as above; details: S. aureus 1775, unit assumed
[5] = system: PSEUDOMONAS AERUGINOSA DPHD-2862; test: as above; details: P. aeruginosa DPHD-2862, unit assumed
[6] = system: STAPHYLOCOCCUS AUREUS A5177; test: as above; details: S. aureus A5177, unit assumed
[7] = system: STAPHYLOCOCCUS AUREUS CMX 553; test: as above; details: S. aureus CMX 553, unit assumed
[8] = system: STREPTOCOCCUS PYOGENES PIU 2548; test: as above; details: S. pyogenes PIU 2548, unit assumed
ESCHERICHIA COLI H560 = test: as above; details: E. coli H560, unit assumed
[9] = system: MYCOBACTERIUM SMEGMATIS ATCC 114; test: as above; details: M. smegmatis ATCC 114, unit assumed
STR[…] 508 = test: as above; details: S. agalactiae CMX 508, unit assumed
Summary of the method: (§1)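 Agar dilution in BHI: plates inoculated with 1:100 dilutions of organisms (1:10 for Micrococcus and Streptococcus), incubated 20-24 h at 35-37° C, then inspected for the lowest inhibitory concentration against a drug-free growth control.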

M[…] ATCC 9341 = test: as above; details: M. luteus ATCC 9341, unit assumed
Summary of the method: as §1

EN[…] ATCC 8043 = test: as above; details: E. faecium ATCC 8043, unit assumed
Summary of the method: as §1

M[…] ATCC 4698 = test: as above; details: M. luteus ATCC 4698, unit assumed
Summary of the method: as §1

[10] = system: STAPHYLOCOCCUS AUREUS A-5278; test: as above; details: S. aureus A-5278, unit assumed
[11] = system: PSEUDOMONAS AERUGINOSA BMH10; test: as above; details: P. aeruginosa BMH10, unit assumed
[12] = system: PSEUDOMONAS AERUGINOSA K799/WT; test: as above; details: P. aeruginosa K799/WT, unit assumed
[13] = system: STREPTOCOCCUS BOVIS A-5169; test: as above; details: S. bovis A-5169, unit assumed
[14] = system: PROVIDENCIA STUARTII CMX 640; details: P. stuartii CMX 640; BHI agar; unit assumed
[15] = system: PSEUDOMONAS AERUGINOSA DPHD-5263; test: In vitro antibacterial activity, MIC, BHI agar dilution; details: P. aeruginosa DPHD-5263, unit assumed
[16] = system: PSEUDOMONAS AERUGINOSA K799/61; test: as above; details: P. aeruginosa K799/61, unit assumed
[17] = system: STAPHYLOCOCCUS EPIDERMIDIS 3519; details: S. epidermidis 3519; BHI agar; unit assumed
ESCHERICHIA COLI JUHL = details: E. coli JUHL; BHI agar; unit assumed
ESCHERICHIA COLI SS = test: In vitro antibacterial activity, MIC, BHI agar dilution; details: E. coli SS, unit assumed
[18] = system: PSEUDOMONAS AERUGINOSA 5007; test: as above; details: P. aeruginosa 5007, unit assumed
[19] = system: STAPHYLOCOCCUS AUREUS NCTC10649M; test: as above; details: S. aureus NCTC10649M, unit assumed
ESCHERICHIA COLI DC-2 = test: as above; details: E. coli DC-2, unit assumed
[20] = system: STAPHYLOCOCCUS AUREUS ATCC 6538P; test: as above; details: S. aureus ATCC 6538P, 35-37° C., 20 to 24 hours, unit assumed
[21] = system: STREPTOCOCCUS PYOGENES EES61; test: as above; details: S. pyogenes EES61, unit assumed
ESCHERICHIA COLI KNK 437 = details: E. coli KNK 437; BHI agar; unit assumed
[22] = system: STREPTOCOCCUS PYOGENES 930; test: In vitro antibacterial activity, MIC, BHI agar dilution; details: S. pyogenes 930, unit assumed

Compound | MIC (CANDIDA ALBICANS CCH 442) [µg/mL] | MIC [1] [µg/mL] | MIC [2] [µg/mL] | MIC (PSEUDOMONAS CEPACIA 296I) [µg/mL] | MIC [3] [µg/mL] | MIC [4] [µg/mL] | MIC [5] [µg/mL] | MIC [6] [µg/mL] | MIC [7] [µg/mL] | MIC [8] [µg/mL] | MIC (ESCHERICHIA COLI H560) [µg/mL] | MIC [9] [µg/mL] | MIC (STR[…] 508) [µg/mL] | MIC (M[…] ATCC 9341) [µg/mL] | MIC (EN[…] ATCC 8043) [µg/mL] | MIC (M[…] ATCC 4698) [µg/mL] | MIC [10] [µg/mL] | MIC [11] [µg/mL] | MIC [12] [µg/mL] | MIC [13] [µg/mL] | also measured
CC[C@H]1OC(=O)[C@H](C)C(=O)[C@H](C)[C@@H](O[C@@H]2O[C@H](C)C[C@H](N(C)C)[C@H]2O)[C@](C)(OC)C[C@@H](C)C2=NC[C@H](Cc3ccc(I)cc3)N3C(=O)O[C@@]1(C)[C@H]3[C@H]2C [Example 70] | 100 (≈ 117 µM) | 0.2 (≈ 0.234 µM) | 100 (≈ 117 µM) | 50 (≈ 58.6 µM) | 100 (≈ 117 µM) | 100 (≈ 117 µM) | 100 (≈ 117 µM) | 0.1 (≈ 0.117 µM) | 0.2 (≈ 0.234 µM) | 0.39 (≈ 0.457 µM) | 50 (≈ 58.6 µM) | 0.2 (≈ 0.234 µM) | 0.05 (≈ 0.0586 µM) | 0.1 (≈ 0.117 µM) | 0.1 (≈ 0.117 µM) | 0.2 (≈ 0.234 µM) | 100 (≈ 117 µM) | 100 (≈ 117 µM) | > 100 | 0.01 (≈ 0.0117 µM) | MIC [14]: > 100 µg/mL; MIC [15]: 100 µg/mL (≈ 117 µM); MIC [16]: 0.78 µg/mL (≈ 0.914 µM); MIC [17]: 0.2 µg/mL (≈ 0.234 µM); MIC (ESCHERICHIA COLI JUHL): 100 µg/mL (≈ 117 µM); MIC (ESCHERICHIA COLI SS): 1.56 µg/mL (≈ 1.83 µM); MIC [18]: 100 µg/mL (≈ 117 µM); MIC [19]: 0.2 µg/mL (≈ 0.234 µM); MIC (ESCHERICHIA COLI DC-2): 50 µg/mL (≈ 58.6 µM); MIC [20]: 0.1 µg/mL (≈ 0.117 µM); MIC [21]: 0.02 µg/mL (≈ 0.0234 µM); MIC (ESCHERICHIA COLI KNK 437): > 100 µg/mL; MIC [22]: 50 µg/mL (≈ 58.6 µM)
CCC1OC(=O)C(C)C(=O)C(C)C(OC2OC(C)CC(N(C)C)C2O)C(C)(OC)CC(C)C2=NCC(COCc3ccccc3F)N3C(=O)OC1(C)C3C2C (stereo not drawn) [Example 73] | > 100 | 0.1 (≈ 0.129 µM) | 100 (≈ 129 µM) | 25 (≈ 32.2 µM) | 100 (≈ 129 µM) | > 100 | 100 (≈ 129 µM) | 0.1 (≈ 0.129 µM) | 0.1 (≈ 0.129 µM) | 0.39 (≈ 0.503 µM) | 12.5 (≈ 16.1 µM) | 0.39 (≈ 0.503 µM) | ≤ 0.005 | 0.01 (≈ 0.0129 µM) | 0.05 (≈ 0.0644 µM) | 0.1 (≈ 0.129 µM) | > 100 | 100 (≈ 129 µM) | > 100 | 0.01 (≈ 0.0129 µM) | MIC [14]: > 100 µg/mL; MIC [15]: 100 µg/mL (≈ 129 µM); MIC [16]: 0.39 µg/mL (≈ 0.503 µM); MIC [17]: 0.1 µg/mL (≈ 0.129 µM); MIC (ESCHERICHIA COLI JUHL): 50 µg/mL (≈ 64.4 µM); MIC (ESCHERICHIA COLI SS): 0.2 µg/mL (≈ 0.258 µM); MIC [18]: > 100 µg/mL; MIC [19]: 0.1 µg/mL (≈ 0.129 µM); MIC (ESCHERICHIA COLI DC-2): 25 µg/mL (≈ 32.2 µM); MIC [20]: 0.1 µg/mL (≈ 0.129 µM); MIC [21]: ≤ 0.005 µg/mL; MIC (ESCHERICHIA COLI KNK 437): 50 µg/mL (≈ 64.4 µM); MIC [22]: 100 µg/mL (≈ 129 µM)
CCC1OC(=O)C(C)C(=O)C(C)C(OC2OC(C)CC(N(C)C)C2O)C(C)(OC)CC(C)C2=NC(COCc3ccc(N(C)C)cc3)CN3C(=O)OC1(C)C3C2C (stereo not drawn) [Example 76] | > 100 | 0.39 (≈ 0.487 µM) | > 100 | > 100 | > 100 | > 100 | > 100 | 0.39 (≈ 0.487 µM) | 0.39 (≈ 0.487 µM) | 0.39 (≈ 0.487 µM) | 50 (≈ 62.4 µM) | 6.2 (≈ 7.74 µM) | 0.1 (≈ 0.125 µM) | 0.2 (≈ 0.25 µM) | 0.1 (≈ 0.125 µM) | 0.39 (≈ 0.487 µM) | > 100 | > 100 | > 100 | 0.01 (≈ 0.0125 µM) | MIC [14]: > 100 µg/mL; MIC [15]: > 100 µg/mL; MIC [16]: 1.56 µg/mL (≈ 1.95 µM); MIC [17]: 0.39 µg/mL (≈ 0.487 µM); MIC (ESCHERICHIA COLI JUHL): > 100 µg/mL; MIC (ESCHERICHIA COLI SS): 0.39 µg/mL (≈ 0.487 µM); MIC [18]: > 100 µg/mL; MIC [19]: 0.2 µg/mL (≈ 0.25 µM); MIC (ESCHERICHIA COLI DC-2): > 100 µg/mL; MIC [20]: 0.39 µg/mL (≈ 0.487 µM); MIC [21]: 0.1 µg/mL (≈ 0.125 µM); MIC (ESCHERICHIA COLI KNK 437): > 100 µg/mL; MIC [22]: > 100 µg/mL

From patent US6274715A, “Tricyclic erythromycin derivatives” (priority 1997, dated 2001)
